Where two headings read alike, the source gives them in different places.
What was measured:
Assay type in all cases: in vivo
IPOHE = assay: Pre-emergence biological efficacy (Table 3); conditions: 1000 g/ha, after 13 days; for pest or weed control at 1000 g/ha: Ipomoea hederacea, 312 h, read-out: evaluation (100=total damage to plant; 0=no damage to plant)
How it was run: (§1)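 Seeds were sown in standard soil in pots, kept one day in a glasshouse (24/19 °C day/night, 16 h light), then sprayed with an aqueous dilution in 0.2% Genapol X080 of a 50 g/l stock in acetone/AMA emulsifier mix. Damage was scored visually after 13 days (0 = none, 100 = total).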

ZEAMX = assay: Pre-emergence biological efficacy (Table 3); conditions: 1000 g/ha, after 13 days; for plant injury at 1000 g/ha: 312 h, read-out: evaluation (100=total damage to plant; 0=no damage to plant)
How it was run: as §1

AMARE [1] = assay: Pre-emergence biological efficacy (Table 3); conditions: 1000 g/ha, after 13 days; for pest or weed control at 1000 g/ha: Amaranthus retroflexus, 312 h, read-out: evaluation (100=total damage to plant; 0=no damage to plant)
How it was run: as §1

ECHCG = assay: Pre-emergence biological efficacy (Table 3); conditions: 1000 g/ha, after 13 days; for pest or weed control at 1000 g/ha: Echinochloa crus-galli, 312 h, read-out: evaluation (100=total damage to plant; 0=no damage to plant)
How it was run: as §1

AMAPA = assay: Pre-emergence biological efficacy (Table 3); conditions: 312 h, 1000 g/ha, after 13 days, read-out: evaluation (100=total damage to plant; 0=no damage to plant)
How it was run: as §1

SETFA = assay: Pre-emergence biological efficacy (Table 3); conditions: Setaria faberi, 312 h, 1000 g/ha, after 13 days, read-out: evaluation (100=total damage to plant; 0=no damage to plant)
How it was run: as §1

STEME [2] = assay: Biological efficacy, post-emergence glasshouse test (Table 2); conditions: 1000 g/ha, after 12 days
Description: (§2) Seeds of a variety of test species were shown in unsterilised compost in small pots. After cultivation for one day (pre-emergence) or seven days (post-emergence) in controlled conditions in the glasshouse (at 24/16° C., day/night; 14 hours light; 65% humidity) the plants were sprayed with 1 mg of the active ingredient, formulated in 466 μl of a acetone/water/Tween 20 (49.75:49.75:0.5) solution, which is equivalent to 1000 g/ha. Once the foliage was dry, the pots were kept in the glasshouse (at 24/16° C., day/night; 14 hours light; 65% humidity), and were watered twice daily. After 12 days the test was evaluated and scored (100=total damage to plant, 0=no damage to plant).

DIGSA [3] = assay: as above; conditions: 1000 g/ha, after 12 days
Description: as §2

AMARE [4] = assay: as above; conditions: 1000 g/ha, after 12 days
Description: as §2

LOLPE [5] = assay: as above; conditions: 1000 g/ha, after 12 days
Description: as §2

weeds and/or crops = assay: Post-emergence biological efficacy (Table 4); conditions: 1000 g/ha, evaluated after 13 days; for pest or weed control at 1000 g/ha: 312 h
How it was run: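 Scores are visual damage (0 = none, 100 = total), read 13 days after treatment at 24/18 °C with 15 h light. Plants had been sown in standard soil and grown 14 days before a spray of compound in F50/acetone, diluted with 0.2% Genapol X080.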

STEME [6] = assay: Pre-emergence biological efficacy (Table 3); conditions: after 13 days
How it was run: as §1

ABUTH = assay: Pre-emergence biological efficacy (Table 3); conditions: after 13 days
How it was run: as §1

STEME [7] = assay: Biological efficacy, pre-emergence glasshouse test (Table 2); conditions: 1000 g/ha, after 12 days
Description: as §2

DIGSA [8] = assay: as above; conditions: 1000 g/ha, after 12 days
Description: as §2

AMARE [9] = assay: as above; conditions: 1000 g/ha, after 12 days
Description: as §2

LOLPE [10] = assay: as above; conditions: 1000 g/ha, after 12 days
Description: as §2

| SMILES | pest or weed control at 1000 g/ha (IPOHE) | plant injury at 1000 g/ha (ZEAMX) | pest or weed control at 1000 g/ha (AMARE [1]) | pest or weed control at 1000 g/ha (ECHCG) | score (100=total damage to plant, 0=no damage to plant) (STEME [2]) | score (100=total damage to plant, 0=no damage to plant) (DIGSA [3]) | score (100=total damage to plant, 0=no damage to plant) (AMARE [4]) | score (100=total damage to plant, 0=no damage to plant) (LOLPE [5]) | score (100=total damage to plant, 0=no damage to plant) (STEME [7]) | score (100=total damage to plant, 0=no damage to plant) (DIGSA [8]) | score (100=total damage to plant, 0=no damage to plant) (AMARE [9]) | score (100=total damage to plant, 0=no damage to plant) (LOLPE [10]) | also measured |
| --- | --- | --- | --- | --- | --- | --- | --- | --- | --- | --- | --- | --- | --- |
| COCc1c(Cl)cccc1C(F)(F)C(=O)O [Compound 1-436, 2-[3-Chloro-2-(methoxymethyl)phenyl]-2,2-difluoro-acetic acid] | 40% | 0% | 30% | 0% | – | – | – | – | – | – | – | – | pest or weed control at 1000 g/ha (AMAPA): 40%; pest or weed control at 1000 g/ha (SETFA): 20% |
| CCOC(=O)C(F)(F)c1cccc2cccc(C(F)(F)C(=O)OCC)c12 [Compound 3-419, Ethyl 2-[8-(2-ethoxy-1,1-difluoro-2-oxo-ethyl)-1-naphthyl]-2,2-difluoro-acetate] | 10% | 0% | 20% | 0% | 70 | 40 | 80 | 0 | 60 | 0 | 80 | 0 | pest or weed control at 1000 g/ha (weeds and/or crops; STEME, read-out: damage to plant STEME (100=total damage; 0=no damage)): 100%; pest or weed control at 1000 g/ha (weeds and/or crops; ZEAMX, read-out: damage to plant ZEAMX (100=total damage; 0=no damage)): 0%; pest or weed control at 1000 g/ha (weeds and/or crops; Abutilon theophrasti, ABUTH, read-out: damage to plant ABUTH (100=total damage; 0=no damage)): 80%; pest or weed control at 1000 g/ha (weeds and/or crops; Amaranthus retroflexus, AMARE, read-out: damage to plant AMARE (100=total damage; 0=no damage)): 20%; pest or weed control at 1000 g/ha (weeds and/or crops; Echinochloa crus-galli, ECHCG, read-out: damage to plant ECHCG (100=total damage; 0=no damage)): 0%; pest or weed control at 1000 g/ha (weeds and/or crops; Ipomoea hederacea, IPOHE, read-out: damage to plant IPOHE (100=total damage; 0=no damage)): 70%; pest or weed control at 1000 g/ha (STEME [6]; 312 h, read-out: evaluation (100=total damage to plant; 0=no damage to plant)): 40%; pest or weed control at 1000 g/ha (ABUTH; Abutilon theophrasti, 312 h, read-out: evaluation (100=total damage to plant; 0=no damage to plant)): 30% |
| N.N#Cc1cccc(C(F)(F)C(=O)O)c1Cl [Compound 7-231, Ammonium;2-(2-chloro-3-cyano-phenyl)-2,2-difluoro-acetate] | – | – | – | – | 80 | 70 | 90 | 0 | 100 | 80 | 90 | 40 | damage to plant ABUTH (100=total damage; 0=no damage) (weeds and/or crops; ABUTH): 90; damage to plant AMARE (100=total damage; 0=no damage) (weeds and/or crops; AMARE): 90; damage to plant ECHCG (100=total damage; 0=no damage) (weeds and/or crops; ECHCG): 10; damage to plant IPOHE (100=total damage; 0=no damage) (weeds and/or crops; IPOHE): 80; damage to plant STEME (100=total damage; 0=no damage) (weeds and/or crops; STEME): 100; damage to plant ZEAMX (100=total damage; 0=no damage) (weeds and/or crops; ZEAMX): 30; evaluation (100=total damage to plant; 0=no damage to plant) (STEME [6]; 1000 g/ha): 100; evaluation (100=total damage to plant; 0=no damage to plant) (IPOHE): 80; evaluation (100=total damage to plant; 0=no damage to plant) (ABUTH; 1000 g/ha): 90; evaluation (100=total damage to plant; 0=no damage to plant) (ZEAMX): 50; evaluation (100=total damage to plant; 0=no damage to plant) (AMARE [1]): 90; evaluation (100=total damage to plant; 0=no damage to plant) (ECHCG): 10 |

— patent US20240251792A1, “WEED CONTROL METHOD” (SYNGENTA CROP PROTECTION AG, priority 2021, published 2024)
